# In publication PMC5826917, “A small molecule inhibitor of Nicotinamide N-methyltransferase for the treatment of metabolic disorders” (Scientific Reports, 2018):
# What was measured:
# ob/ob mice = assay: Chronic efficacy study in ob/ob mice; format: in vivo, mouse
# Protocol: (§1) Samples for MNA were analyzed employing a fit-for-purpose LC-MS/MS method. PE-Sciex API-4000 triple quadrupole (PerkinElmerSciex Instruments, Boston, MA) mass spectrometer was employed for this analysis. Samples (5 µL) were injected onto Kinetex HILIC (50 × 4.6 mm, 2.6 µm; Phenomenex, Torrance, CA, USA) column connected to Shimadzu VP (Shimadzu, Japan) LC system. The gradient mobile phase mixture of 0.2% formic acid and acetonitrile was delivered at a flow rate of 0.45 ml min-1 into the mass spectrometer electrospray ionization (ESI) chamber. Quantitation was achieved by MS/MS detection in positive ion mode for MNA and internal standard (d4–MNA). Detection of the ions was performed in the multiple reaction monitoring (MRM) mode, monitoring the transition of the m/z 137 precursor ion to the m/z 92 product ion for MNA and m/z 141 precursor ion to the m/z 84 product ion for d4-MNA (internal standard).
# (§2) A simple protein precipitation extraction method was followed for extraction of N-methylnicotinamide from plasma and various tissue homogenate samples. The tissue samples were homogenized with 1:3 proportions of phosphate buffer saline (PBS) and this homogenate was used for N-Methylnicotinamide determinations. To an aliquot of ~50 μL of plasma/ liver homogenate/ adipose tissue homogenate samples ~300 µl of acetonitrile containing IS (d4-MNA) solution was added, followed by vortex for ~3 minutes and centrifuged for 10 minutes at 14,000 rpm. The supernatant was separated and transferred to pre-labeled HPLC vials and analyzed by LC-MS/MS system.
# (§3) Male C57BL6/N (Vivo Bio Tech Ltd, India), ob/ob (B6.V-Lepob/OlaHsd) and its lean control (Envigo laboratories Inc, USA) and db/db (BKS.Cg- + Leprdb/ + Leprdb/OlaHsd) and its lean control (Envigo laboratories Inc, USA) were housed in individually ventilated cages (n = 5/cage) under standard laboratory conditions. The study room environment was maintained at a temperature of 21–24 °C and, relative humidity at 40–70%. The animal rooms were maintained under 12 h light and dark cycle. Animals were provided with ad libitum access to water and food (except where noted otherwise, e.g. during fasting prior for glucose tolerance tests, fasting prior to terminal sacrifice). Animals were acclimatized for 1 week before initiation of studies. For Diet induced obesity (DIO) mice study, C57BL6/N mice were maintained on rodents chow diet (Teklad; Harlan) or HFD (60% Kcal; Research diet) for 14 weeks before study initiation and throughout the study period. ob/ob and db/db mice and their lean controls were maintained on rodents chow diet (Teklad; Harlan). All the experiments were approved by Institutional Animal Ethics Committee (IAEC) of Jubilant Biosys Ltd, India.
# Lean control + Vehicle and HFD + Vehicle Control groups (G1 and G2) mice were administered with vehicle. Dose formulations of HFD + JBSNF-000088, 50 mg kg^−1, po, bid were administered at dose volume of 5 mL kg^−1 body weight to G3 mice. Similar pattern was followed for ob/ob mice and db/db mice studies. The dose volume for individual animals was calculated based on the most recently recorded body weight during the study period. […] Cage side observations of animals for visible clinical signs, was carried out once daily throughout the study period. Individual animal body weights were recorded twice weekly during the study period.
# The ob/ob mice were 12 weeks of age at the start of the study and db/db mice were 8 weeks of age at the start of the study. DIO mice were 20 weeks of age at the start of the study. In each study, non-diabetic lean mice comprised the control group which received vehicle (0.5% w/v HEC and 0.5% v/v Tween 80) and obese or diabetic mice were randomly assigned to two groups based on body weight and unfasted glucose which received either vehicle (0.5% w/v HEC and 0.5% v/v Tween 80) or JBSNF-000088, 50 mg kg^−1, po, bid for 30 days.
# [1] = biological target: Cannabinoid Receptor 2 (CB2) (Homo sapiens, UniProt P34972); assay: Selectivity panel: CB2; format: cell-based
# Protocol: Supplement 41598_2018_22081_MOESM1_ESM.docx, table 2: Supplementary table 2: Selectivity profile of JBSNF-000088 (at 10 µM) vs a panel of 34 receptors, channels and enzymes. | column: E% (agonistic); I% (antagonistic or inhibitory)
# in vivo = settings: male, db/db (BKS.Cg- + Leprdb/ + Leprdb/OlaHsd), mouse, in vivo, JBSNF-000088 (μM)
# Protocol: as §1, §2
# (§4) Samples for methylated JBSNF-000088 were analyzed employing a fit-for-purpose LC-MS/MS method. PE-Sciex API-5500 triple quadrupole (PerkinElmerSciex Instruments, Boston, MA) mass spectrometer was employed for this analysis. Samples (2 µL) were injected onto Atlantis dC18 (50 × 4.6 mm, 3 µm; Waters, Milford, MA, USA) column connected to Shimadzu VP (Shimadzu, Japan) LC system. The gradient mobile phase mixture of 0.2% formic acid and acetonitrile was delivered at a flow rate of 0.9 mL min-1 into the mass spectrometer electrospray ionization (ESI) chamber. Quantitation was achieved by MS/MS detection in positive ion mode for methylated JBSNF-000088 and internal standard (Tolbutamide). Detection of the ions was performed in the multiple reaction monitoring (MRM) mode, monitoring the transition of the m/z 168 precursor ion to the m/z 128.8, product ion for MNA and m/z 271 precursor ion to the m/z 91 product ion for tolbutamide (internal standard).
# as §3
# (§5) Lean control + Vehicle and HFD + Vehicle Control groups (G1 and G2) mice were administered with vehicle.
# db/db mice = assay: Chronic efficacy study in db/db mice; settings: db/db mice
# Protocol: as §1, §2, §4, §3, §5
# [2] = 30 days, p < 0.0001 vs vehicle control
# Cannabinoid Receptor 2 (CB2), sequence (P34972 whole entry): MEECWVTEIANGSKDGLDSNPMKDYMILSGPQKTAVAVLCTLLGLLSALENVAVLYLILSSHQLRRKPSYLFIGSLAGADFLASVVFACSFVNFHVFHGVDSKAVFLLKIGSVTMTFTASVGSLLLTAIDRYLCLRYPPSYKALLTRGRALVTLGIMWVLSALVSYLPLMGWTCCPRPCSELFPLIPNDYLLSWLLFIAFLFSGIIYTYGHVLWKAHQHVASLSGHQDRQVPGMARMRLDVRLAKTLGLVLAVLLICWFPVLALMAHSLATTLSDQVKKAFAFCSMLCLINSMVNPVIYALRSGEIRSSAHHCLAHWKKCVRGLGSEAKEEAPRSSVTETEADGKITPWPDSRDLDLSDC
smiles,measurement,setting,value
"COc1ccc(C(N)=O)cn1 [JBSNF-000088, 6-methoxynicotinamide]",body weight gain,"ob/ob mice; 50 mg/kg b.i.d p.o., 30 days, vs vehicle",gained comparable weight
same,MNA levels in visceral WAT and subcutaneous fat,ob/ob mice; [2],statistically significant reduction
same,fed blood glucose or insulin,"ob/ob mice; day 21, vs vehicle control",no reduction
same,glucose tolerance,ob/ob mice; day 28,statistically significant improvement
same,AUC blood glucose (OGTT),"ob/ob mice; day 28, p < 0.001 vs vehicle control",significantly (p < 0.001) lower
same,plasma insulin,"ob/ob mice; fed days 7, 14 or 21, fasting day 28, 15 minutes after glucose bolus",not accompanied by a reduction in plasma insulin
same,HOMA-IR index,ob/ob mice; p < 0.001 vs vehicle control,statistically significant improvement
same,cumulative food intake,ob/ob mice; vs vehicle,comparable
same,"E% (agonistic), CB2",[1]; 10 µM,-7%
same,inhibition at 10 µM,"[1]; read-out: I% (antagonistic or inhibitory), CB2",1%
same,concentration at 1 h,in vivo; plasma,275 ± 39 µM
same,concentration at 1 h,in vivo; subcutaneous fat,6.94 ± 1.52 µM
same,concentration at 1 h,in vivo; visceral fat,7.14 ± 2.18 µM
same,HOMA-IR,db/db mice,no change
same,body weight gain,"db/db mice; 50 mg kg^−1 bid, four weeks, vs vehicle",gained comparable weight
same,MNA levels in liver and visceral WAT and s/c fat,db/db mice; [2],statistically significant reduction
same,fed blood glucose,"db/db mice; day 21, p < 0.001 vs vehicle control",moderate but statistically significant reduction
same,glucose tolerance,"db/db mice; day 26, not statistically significant",trend towards improvement
same,"Fed insulin levels on days 7, 14 and 21 and fasting insulin levels on day 28",db/db mice; vs vehicle,not different
same,cumulative food intake,db/db mice; vs vehicle,comparable
same,AUC blood glucose (OGTT),db/db mice; vs vehicle control,Slightly lower
